In brackets after ≈: the same amount, converted by molar mass. Several values for one entry are separate records, joined by “and”; a condition that tells them apart may be missing. Equal values may be shown once. Entries after “also recorded” stand apart in the source; their conditions may differ. Read-outs that look alike come from different tables or passages of the source.
Key:
nSMase [1] = molecular target: nSMase; parameters: method as in PMID 21615386, PMID 17049336; details: Enzyme source: Mouse brain; cited from earlier work
[2] = tested on: rat primary hippocampal neurons; assay: Hippocampal neuronal survival (Hoechst 33342); format: cell-based
Method: All animal procedures were approved by the Johns Hopkins University Animal Care and Use Committee. Primary hippocampal neurons were prepared from day 18 decapitated embryos of Sprague-Dawley rats following previously described methods. Cells were seeded on polyethyleneimine (PEI)-coated slides in 12-well plates and cultured between 14–21 days. […] After 18 h, cells were stained with 50 μg/ml Hoeschst 33342 for 20 min and then fixed with 4% paraformaldehyde for 30 min. The number of living and apoptotic cells was determined by fluorescence microscopy. A minimum of 500 cells were counted per treatment condition. Results were normalized to control untreated cells and were representative of at least two independent experiments conducted in triplicate. Statistical evaluation of the data was done by Student’s t-test.

SIRT1 = details: cited from earlier work
SIRT2 = details: cited from earlier work
human nSMase2 [3] = molecular target: T1, human nSMase2 (Homo sapiens, UniProt Q9NY59); assay: Fluorescence (Amplex red coupled) nSMase2 activity assay; format: biochemical; parameters: Full length human nSMase2 cDNA with a C-terminal Flag tag; crude cell lysate used as enzyme; details: for block of human nSMase2 activity: even at 100 μM; for inhibition of human nSMase2 activity: 150 μM GW4869, 100 μM manumycin A, altenusin, zoledronic acid
T1 sequence (Q9NY59 1-655): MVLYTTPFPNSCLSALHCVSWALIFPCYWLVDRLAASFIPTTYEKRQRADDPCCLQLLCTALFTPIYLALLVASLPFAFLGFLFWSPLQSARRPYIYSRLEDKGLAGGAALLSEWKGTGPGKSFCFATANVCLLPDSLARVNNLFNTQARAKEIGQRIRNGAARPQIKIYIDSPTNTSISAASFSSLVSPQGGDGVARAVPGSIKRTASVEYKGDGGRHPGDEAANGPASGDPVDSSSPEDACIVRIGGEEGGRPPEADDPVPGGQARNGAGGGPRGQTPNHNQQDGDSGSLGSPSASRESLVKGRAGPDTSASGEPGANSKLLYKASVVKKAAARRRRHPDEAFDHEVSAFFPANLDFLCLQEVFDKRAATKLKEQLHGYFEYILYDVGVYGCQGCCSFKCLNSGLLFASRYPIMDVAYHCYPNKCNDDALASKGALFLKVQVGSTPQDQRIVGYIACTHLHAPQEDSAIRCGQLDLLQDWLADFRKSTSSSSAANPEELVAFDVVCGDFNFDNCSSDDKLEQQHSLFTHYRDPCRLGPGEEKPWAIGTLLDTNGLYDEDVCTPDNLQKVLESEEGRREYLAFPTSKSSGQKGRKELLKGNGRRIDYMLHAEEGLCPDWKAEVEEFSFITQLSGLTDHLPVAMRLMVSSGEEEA
Method: The production of the latter was coupled to a dephosphorylation reaction catalyzed by alkaline phosphatase (4 U/ml) to produce choline, followed by oxidation of choline by choline oxidase (0.1 U/ml) to produce betaine and H2O2, which in the presence of horseradish peroxidase (HRP, 1U/ml) and 50 μM Amplex red, generates the fluorescent molecule resorufin (Life Technologies). Substrate stock solution was prepared in 2% Triton X-100, vortexed and sonicated for 30 min. Reactions were carried out for 1 h at 37°C in 100 mM Tris-HCl pH 7.4, 10 mM MgCl2, 0.2% Triton X-100 and the generation of the fluorescent product was monitored by measuring relative florescence units (RFU) with excitation at 530 nm and emission at 590 nm (Fig 1). This assay was optimized for 384-well format (50 μl total volume per well) based on linearity of the enzymatic activity with respect to time, as well as substrate and enzyme concentrations. […] This fluorescence assay was used for compound screening and IC50 value determinations, based on duplicate eight-point dose response curves.

Solubility = format: physicochemical; details: cambinol compared to GW4869
nSMase [4] = molecular target: nSMase; parameters: method as in PMID 21615386, PMID 17049336; details: cited from earlier work
[5] = in DMSO; cited from earlier work
nSMase [6] = tested on: nSMase; parameters: method as in PMID 21615386, PMID 17049336; details: cited from earlier work; remark: listed apart in the source
human nSMase2 [7] = molecular target: T1, human nSMase2; assay: 14C-SM confirmatory direct activity assay; format: biochemical; parameters: Full length human nSMase2 cDNA with a C-terminal Flag tag; host or cells: HEK293, stably transfected; crude cell lysate used as enzyme
Method: This assay was dependent on the direct hydrolysis of ^14C-labeled SM (^14C N-methyl groups in the phosphorylcholine) by human nSMase2. Optimization of assay conditions was accomplished according to the methods of Barbone et al.. Briefly, bovine [N-methyl-^14C]-sphingomyelin (specific activity […], Perkin Elmer) and phosphatidylinositol (Avanti Polar Lipids) were evaporated to dryness under a stream of nitrogen and resuspended at an equimolar concentration of 0.1 mM in water with 0.5% Triton X-100 (Sigma). The solution was vortexed for 30 min and then sonicated for 30 min. Assay conditions were as follows: 50 μl total volume per reaction, consisting of 20 μM SM, reaction buffer (100 mM Tris-HCl pH 7.5, 80 mM MgCl2, 0.1% Triton X-100); 10 μl cell lysate containing recombinant human nSMase2 (0.5–1 μg protein/assay) and 5 μl of compound in reaction buffer containing 10% DMSO. After 1 h incubation at 37°C the reaction was terminated by the addition of 30 μl of water and 175 μl of chloroform/methanol (2:1, v:v), followed by vigorous vortexing. Tubes were centrifuged for 5 min at 10,000 xg at room temperature to separate the organic bottom phase containing labeled SM and the aqueous upper phase containing ^14C-labeled-phosphorylcholine. An aliquot (50 μl) of the upper phase was transferred to a vial with 10 ml of scintillant and counted for 2 min on a Beckman LS-6000IC scintillation counter. Enzyme activity was directly proportional to the disintegrations per min (dpm) resulting from the generation of ^14C-phosphorylcholine.

For `CCCCCCCCCCC=NNC(=N)N` [C11AG], the IC50 (nSMase [1]) is listed as 8 µM.

For `NC(=O)[C@H]1CCCCc2c1[nH]c1ccc(Cl)cc21` [CHIC-35, reference compound], the “neuron survival, Mean (normalized to control untreated cells)” value ([2]; 100 ng/ml TNFα, 200 nM compound) is given as 71.88, the “neuron survival, Mean (normalized to control untreated cells)” value ([2]; No TNFα, 200 nM compound) is given as 62.07 and the IC50 (SIRT1) is given as […]. The IC50 (SIRT2) was 19.6 µM, the “block of human nSMase2 activity” value (human nSMase2 [3]) was “not possible to block” and the IC50 (human nSMase2 [3]; fluorescence nSMase2 assay (S2 Fig)) was 70 µM.

For `O=C(/C=C\c1ccc(/C=C\C(=O)Nc2ccc(C3=NCCN3)cc2)cc1)Nc1ccc(C2=NCCN2)cc1` [GW4869, reference compound], the “aqueous solubility” value (Solubility) is listed as “low”, the IC50 (nSMase [4]; Enzyme source: Rat brain) is listed as 1 µM and the MOI (nSMase [4]) is listed as “Non- competitive”. For the same molecule, the solubility [5] was 0.2 mg/mL (≈ 396 µM), the “modulation of enzymatic activity (Fig 3C raw data)” value (human nSMase2 [3]; 150 µM (nominal)) was 59.6 RFU and 72.8 RFU and 57.5 RFU and 70.4 RFU and the “inhibition of human nSMase2 activity” value (human nSMase2 [3]) was “possible to inhibit enzyme activity; also recorded: inhibition”.

For `CCCC[C@@H](C)/C=C(C)/C=C(\C)C(=O)NC1=C[C@@](O)(/C=C/C=C/C=C/C(=O)NC2=C(O)CCC2=O)[C@@H]2O[C@@H]2C1=O` [Manumycin A, reference compound], the MOI (nSMase [6]) is listed as “Irreversible” and the “inhibition of human nSMase2 activity” value (human nSMase2 [3]) is listed as “inhibition”.

For `CCCCn1c(-c2ccccc2)c(Cc2c(O)ccc3ccccc23)c(=O)[nH]c1=S` [compound 4], the “potency and specificity against SIRT 2 vs cambinol” value (SIRT2) is listed as “significantly improved”, the “human nSMase2 inhibitory activity of analog vs cambinol” value (human nSMase2 [7]; SAR) is listed as “loss of activity; also recorded: eliminated” and the IC50 (human nSMase2 [7]; [14C]-SM direct activity assay, human recombinant enzyme) is listed as greater than 100 µM.

In the case of `CC(NC(=O)c1ccccc1/N=C/c1c(O)ccc2ccccc12)c1ccccc1` (centres unmarked) [sirtinol, reference compound], the “neuron survival, Mean (normalized to control untreated cells)” value ([2]; 100 ng/ml TNFα, 40 µM compound) is given as 60.73, the “neuron survival, Mean (normalized to control untreated cells)” value ([2]; No TNFα, 40 µM compound) is given as 53.3 and the IC50 (SIRT1) is given as […]. For the same molecule, the IC50 (SIRT2) was […] and the “block of human nSMase2 activity” value (human nSMase2 [3]) was “not possible to block”.
